# Results reported in patent US20250288554A1, “PROPHYLACTIC OR THERAPEUTIC AGENT FOR NON-ALCOHOLIC STEATOHEPATITIS-DERIVED HEPATOCARCINOMA” (SEAKNIT Biological Technology Co., Ltd., priority 2022, published 2025).
# “Also recorded” adds a separate entry of the source.
# Legend:
# [1] = tested on: HepG2 cell; test: Taxifolin's suppressing action on fatty acid capturing in HepG2 cells (Oil Red O lipid droplet staining); format: cell-based, human; settings: 24 hours; for capturing amount of palmitic acid by the HepG2 cells: 400 μm palmitic acid, vs Group B without taxifolin
# Experimental: In Test example 2, the taxifolin's action on fatty acid capturing was studied by using the HepG2 cell, which is the cell strain derived from human hepatocarcinoma.
# The HepG2 cells were inoculated with the density of 0.2×10^6 cells/well on the plate having 24 wells, and they were cultured using the 10% FBS-containing DMEM medium until the HepG2 cells covered 70 to 80% of the surface in the culture vessel. The HepG2 cells cultured in the culture medium were washed with the phosphate buffer (PBS), then cultured for 24 hours in the serum-free medium containing 400 μm of palmitic acid, taxifolin with various concentrations, and 1% BSA, with n=6 in each Group A to E, as described in Table 2.
# The glucose concentration contained in the culture medium and in the serum-free medium were made 0%, 0.1% (low glucose), or 0.45% (high glucose).
# The HepG2 cells that had been cultured in the serum-free medium for 24 hours were immobilized by 4% paraformaldehyde after washing with PBS. The resulting immobilized HepG2 cells were treated with 60% isopropanol, and then the lipid drops in the cells were stained using Oil Red O (Wako Pure Chemical Industries, Ltd.). Thereafter, it was washed with 60% isopropanol and then with PBS. The resulting washed HepG2 cells were treated with 100% isopropanol to elute the Oil Red O out. The resulting eluted Oil Red O was recovered in the plate with 96 wells, and then the absorbance (550 nm) was measured using the microplate reader (Multiscan SkyHigh; Thermo Fisher Scientific, Inc.).
# The statistical analysis was conducted using Student t-test.
# In FIG. 2, the capturing amount of the fatty acid is expressed by the average value of each group±standard error.
# FIG. 2 indicates the capturing amount of the fatty acid in the HepG2 cells in each Group. The capturing amount in the HepG2 cells in each Group A to E is expressed by the percentage relative to Group A.
# [2] = tested on: MC4R deficient mouse; test: Prophylactic effect of taxifolin on hepatocarcinoma in MC4R deficient mouse loaded with a high fat diet; format: in vivo; settings: high fat diet containing 3% of taxifolin from 20 to 50 weeks old, vs reference group
# Source text: In Test Example 3, the taxifolin's action on the hepatocarcinoma by using the melanocortin-4 receptor deficient mouse (hereinafter, “MC4R deficient mouse”) loaded with a high fat diet. On the basis of the description in JP 2020-065454 A and JP 2017-006022 A, the MC4R deficient mouse provided by Joel K. Elmquist at the Medical Center in Texas University was used (Cell, 2005; 123(3): 493-505). The genetic background of the MC4R deficient mouse is the C57BL/6J mouse. These mice were kept under the controlled condition of temperature, humidity, and lighting time (12 hours cycle of dark and bright), unless otherwise specifically noted. After weaning (4 weeks after the birth), they were raised with a high fat diet (D12492 (524 kcal/100 g; 60% fat content in terms of energy rate); Research Diets, Inc.) and with freely available drinking water. All the MC4R mice loaded with the high fat diet had the NASH-like symptom by 20 weeks old; it has been known that they develop hepatocarcinoma thereafter (Am. J. Pathol., 2011; 179(5):2454-2463). The MC4R deficient 20 weeks old mice loaded with the high fat diet were divided into two groups; the reference group (n=13) that is continued to be fed with the same high fat diet until 50 weeks old, and the taxifolin-administered group (n=12) that is fed with the high fat diet containing 3% of taxifolin. The mice raised until 50 weeks old were euthanized by deep anesthesia using three mixed anesthetic agents, and then, the liver of each individual was removed. The number of the precancerous symptoms (Foci) in the removed liver, the number of the tumors having the precancerous symptom clustered, and the size of the tumor were measured. The statistical analysis was conducted using Student t-test. In FIG. 3, the number of the precancerous symptoms, the number of the tumors having the precancerous symptom clustered, and the size of the tumor are expressed by the average value of each group±standard error.
# [3] = tested on: CD36 gene expression; test: Suppression effect of taxifolin on CD36 gene expression in the liver tissue of high-fat diet-induced model mice (real-time PCR); format: in vivo, mouse; settings: C57BL/6J male mice, corrected by GAPDH
# Source text: In Test Example 1, the taxifolin's action on the CD36 gene expression in the liver tissue was studied using the high-fat diet-induced model mice.
# The C57BL/6J male mice (7 weeks old: CLEA Japan, Inc.) were acclimated for one week with a normal solid diet (MF: Oriental Yeast Co., Ltd.) and with freely available drinking water.
# The 8 weeks old mice after the acclimation were divided into 4 groups with 5 mice each, namely, the group of those raised with a normal solid diet for 12 weeks until 20 weeks old (hereinafter, “ND Group”), the group raised with a high fat diet (HFD-60 (506 kcal/100 g; 60% fat content in terms of energy rate): Oriental Yeast Co., Ltd.) (hereinafter, “HFD Group”), the group raised with the high fat diet containing 1% by weight of taxifolin (hereinafter, “HFD+1% TX-administered Group”), and the group raised with the high fat diet containing 3% by weight of taxifolin (hereinafter, “HFD+3% TX-administered Group”).
# The mice raised until 20 weeks old were anesthetized with ether, and after they were euthanized by cervical dislocation, the liver of each individual was removed. […]
# The mRNA expression amount of CD36 was corrected by the expression amount of glyceraldehyde-3-phosphate dehydrogenase (GAPDH), and this was comparatively quantified using the ΔΔCt method. […]
compound,measurement,setting,value
O=C1c2c(O)cc(O)cc2O[C@H](c2ccc(O)c(O)c2)[C@H]1O [taxifolin],concentration at which taxifolin suppressed the fatty acid capturing in the liver cells,"[1]; HepG2 cells, palmitic acid, lowest concentration tested",0.1 nM
same,capturing amount of palmitic acid by the HepG2 cells,"[1]; high glucose (0.45%), taxifolin 0.1 nM to 1 μM",same tendency
same,capturing amount of palmitic acid by the HepG2 cells,"[1]; low glucose (0.1%), taxifolin 0.1 nM or more",significantly decreased
same,number of the precancerous symptoms (Foci) in the liver,[2],decreased drastically
same,number of the tumors having the precancerous symptom clustered,[2],decreased drastically
same,size of the tumor between 1 and 5 mm,[2],decreased significantly
same,mRNA expression amount of CD36 in the liver tissue,[3]; high fat diet containing 1% by weight of taxifolin for 12 weeks (HFD+1% TX-administered Group) vs HFD Group,significantly decreased
same,mRNA expression amount of CD36 in the liver tissue,[3]; high fat diet containing 3% by weight of taxifolin for 12 weeks (HFD+3% TX-administered Group) vs HFD Group,significantly decreased; also recorded: suppressed to the same level as the ND Group
